What was measured:
[1] = LNP size and polydispersity index (PDI) by dynamic light scattering; type: physicochemical; conditions: LNP with cirRNA (SEQ ID NO: 1); for Size: in nm (unit assumed)
Summary of the method: (§1)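 Ribogreen fluorescence with and without Triton X-100 gave encapsulation as 100% − (intact/lysed) signal; DLS size, PDI and zeta potential measured on a Zetasizer. Particles: 50:10:38.5:1.5 lipid mix, luciferase circRNA or mRNA, lipid:nucleotide 15 or 6, microfluidic assembly at pH 4.5, PBS-dialyzed.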

[2] = LNP zeta potential (Zetasizer); type: physicochemical; conditions: LNP with cirRNA (SEQ ID NO: 1)
Summary of the method: as §1

[3] = RNA encapsulation efficacy by Quant-IT Ribogreen kit; type: physicochemical; conditions: LNP with cirRNA (SEQ ID NO: 1)
Summary of the method: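 Dynamic light scattering and zeta potential measurements were run on PBS-dialyzed LNPs, which had been formed by microfluidic mixing at 12 ml/min with final lipid at 1.5 mM to 6 mM. RNA content and percent encapsulation were determined by Ribogreen with and without Triton X-100.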

Hep G2 cells [4] = assay: In vitro expression of firefly-luciferase, Hep G2; type: cell-based; conditions: cirRNA (SEQ ID NO: 1) LNPs; firefly-luciferase luminescence; Hep G2 cells
Summary of the method: (§2)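 First, cells were dosed with RNA lipid nanoparticles encoding firefly luciferase (100 ng/mL). Second, at 72 h they were washed and lysed. Third, lysate luciferase activity was read with a luminometer.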

RAW 264.7 cells [5] = assay: In vitro expression of firefly-luciferase, RAW 264.7; type: cell-based; conditions: cirRNA (SEQ ID NO: 1) LNPs; firefly-luciferase luminescence; RAW 264.7 cells
Summary of the method: as §2

Hep G2 cells [6] = assay: In vitro toxicity (CellTiter-Glo cell viability), Hep G2; type: cell-based; conditions: cirRNA (SEQ ID NO: 1) LNPs; Hep G2 cells;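 further: percent of untreated cells luminescence signal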
Summary of the method: (§3)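 RNA-LNPs 1 μg/mL; 72 h post-transfection; CellTiter-Glo luminescence read-out; % viability calculated from signal.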

RAW 264.7 cells [7] = assay: In vitro toxicity (CellTiter-Glo cell viability), RAW 264.7; type: cell-based; conditions: cirRNA (SEQ ID NO: 1) LNPs; RAW 264.7 cells;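 further: percent of untreated cells luminescence signal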
Summary of the method: as §3

BALB/C mice = assay: In vivo expression, whole-body luminescence (IVIS); conditions: cirRNA (SEQ ID NO: 1) LNPs, BALB/C mice
Method: 6-8 week old, female BALB/C mice were injected with 0.05 mg*kg-1 of RNA-LNPs encoding for firefly-luciferase by intravenous injection. At 6 hours post injection, animals were intraperitoneally injected with 15 mg/ml of Luciferin substrate and whole-body luminescence was determined by a bioluminescent in vivo imaging system (IVIS).

| Compound | PDI [1] | Size [1] | Zeta (mV) [2] [mV] | Encapsulation Efficiency % [3] [%] | In vitro Expression HepG2 (Hep G2 cells [4]) | In vitro Expression RAW (RAW 264.7 cells [5]) | In vitro Viability HepG2 (Hep G2 cells [6]) [%] | In vitro Viability RAW (RAW 264.7 cells [7]) [%] | In vivo Expression (Whole Body) (BALB/C mice) |
| --- | --- | --- | --- | --- | --- | --- | --- | --- | --- |
| CCCCC/C=C\C/C=C\CCCCCCCCN(CCCCCCCC(=O)OC(CCCCCCCC)CCCCCCCC)CCCOC(=O)NCCN1CCCC1 [Lipid 277] | 0.2188 | 76.75 | −0.6853 | 92 | 1.17E+07 | 8.13E+06 | 89 | 121 | 7.29E+07 |
| CCCCCCCCC(CCCCCCCC)OC(=O)CCCCCCCN(CCCCCCCCOC(=O)C(CCCCCC)CCCCCCCC)CCNC(=O)OCCN(C)C (stereo not drawn) [Lipid 279] | 0.2722 | 87.32 | −0.06404 | 95 | 5.05E+06 | 1.62E+05 | 23 | 55 | 3.67E+07 |
| CCCCCCCCC(CCCCCCCC)OC(=O)CCCCCCCN(CCCCCCCCOC(=O)C(CCCCCC)CCCCCCCC)CCCOC(=O)NCc1ncc[nH]1 (stereo not drawn) [Lipid 345] | 0.1901 | 70.01 | −2.69 | 92 | 2.57E+06 | 2.20E+05 | 99 | 102 | 2.49E+06 |
| CCCCCCCCC(CCCCCCCC)OC(=O)CCCCCCCN(CCCCCCCCOC(=O)C(CCCCCC)CCCCCCCC)CCCOC(=O)NCCCN(CC)CC (stereo not drawn) [Lipid 346] | 0.264 | 111.1 | −0.00452 | 95 | 1.02E+06 | 1.46E+05 | 73 | 93 | 3.59E+06 |
| CCCCCCCCC(CCCCCCCC)OC(=O)CCCCCCCN(CCCCCCCCOC(=O)C(CCCCCC)CCCCCCCC)CCCOC(=O)NCCN1CCN(C)CC1 (stereo not drawn) [Lipid 347] | 0.2462 | 90.56 | −0.6677 | 94 | 1.04E+06 | 4.27E+04 | 92 | 96 | 7.61E+06 |
| CCCCCCCCC(CCCCCCCC)OC(=O)CCCCCCCN(CCCCCCCCOC(=O)C(CCCCCC)CCCCCCCC)CCCOC(=O)NCCc1ncc[nH]1 (stereo not drawn) [Lipid 349] | 0.1452 | 75.85 | 0.02482 | 97 | 2.42E+04 | 7.58E+03 | 90 | 87 | 1.01E+07 |
| CCCCCCCCC(CCCCCCCC)OC(=O)CCCCCCCN(CCCCCCCCOC(=O)C(CCCCCC)CCCCCCCC)CCCOC(=O)NCCN1CCC1 (stereo not drawn) [Lipid 353] | 0.2483 | 116.6 | 4.334 | 95 | 4.17E+04 | 3.38E+03 | 37 | 40 | 1.48E+06 |
| CCCCCCCCCC(=O)OCCCCCCCN(CCCCCCCCOC(=O)C(CCCCCC)CCCCCCCC)CCCOC(=O)NCCCN(C)C (stereo not drawn) [Lipid 355] | 0.2834 | 64.55 | 8.299 | 90 | 1.70E+03 | 9.80E+02 | 123 | 72 | 7.94E+05 |
| CCCCCCCCCC(=O)OCCCCCCCN(CCCCCCCCOC(=O)C(CCCCCC)CCCCCCCC)CCCOC(=O)NCCCn1ccnc1 (stereo not drawn) [Lipid 356] | 0.423 | 336.5 | −0.5834 | 77 | 1.96E+03 | 1.06E+04 | 112 | 84 | 5.24E+05 |
| CCCCCCCCCC(=O)OCCCCCCCN(CCCCCCCCOC(=O)C(CCCCCC)CCCCCCCC)CCCOC(=O)NCCN1CCCC1 (stereo not drawn) [Lipid 357] | 0.3136 | 104.3 | 6.34 | 87 | 2.53E+05 | 7.92E+03 | 120 | 8 | 1.85E+06 |
| CCCCCCCCCC(=O)OCCCCCCCN(CCCCCCCCOC(=O)C(CCCCCC)CCCCCCCC)CCOC(=O)NCCCN1CCCCC1 (stereo not drawn) [Lipid 358] | 0.1606 | 81.33 | 1.109 | 87 | 1.88E+05 | 9.81E+03 | 121 | 83 | 2.29E+07 |
| CCCCCCCCCC(=O)OCCCCCCCN(CCCCCCCCOC(=O)C(CCCCCC)CCCCCCCC)CCCOC(=O)NCCN(C)C (stereo not drawn) [Lipid 359] | 0.337 | 113.9 | 6.547 | 89 | 9.26E+04 | 2.38E+03 | 122 | 8 | 1.85E+06 |
| CCCCCCCCCC(=O)OCCCCCCCN(CCCCCCCCOC(=O)C(CCCCCC)CCCCCCCC)CCCOC(=O)NCc1ncc[nH]1 (stereo not drawn) [Lipid 360] | 0.2143 | 82.84 | −2.27 | 85 | 1.22E+05 | 1.63E+05 | 113 | 86 | 7.50E+07 |
| CCCCCCCCCC(=O)OCCCCCCCN(CCCCCCCCOC(=O)C(CCCCCC)CCCCCCCC)CCCOC(=O)NCCCN(CC)CC (stereo not drawn) [Lipid 361] | 0.438 | 91.91 | 8.107 | 88 | 1.62E+05 | 2.97E+03 | 114 | 4 | 1.10E+06 |
| CCCCCCCCCC(=O)OCCCCCCCN(CCCCCCCCOC(=O)C(CCCCCC)CCCCCCCC)CCCOC(=O)NCCN1CCN(C)CC1 (stereo not drawn) [Lipid 362] | 0.3944 | 88.25 | 11.87 | 89 | 3.82E+04 | 1.99E+03 | 106 | 0 | 1.68E+06 |
